Columns and labels:
[1] = biological target: T1, EGFR (Homo sapiens, UniProt P00533); assay: EGFR substrate phosphorylation enzyme assay (HTRF); format: biochemical; details: isolated enzyme, 20 μM ATP
T1 construct: made in house; host or cells: baculovirus expression system
Protocol: Compounds of the present invention were tested for EGFR, ErbB-2, and ErbB4 protein tyrosine kinase Inhibitory activity in substrate phosphorylation assays using enzymes purified from a baculovirus expression system.
(§1) The method measures the ability of the isolated enzyme to catalyse the transfer of the γ-phosphate from ATP onto the tyrosine residue of a biotinylated synthetic peptide (biotin-Ahx-[…]-amide). The extent of tyrosine phosphorylation was measured using an anti-phosphotyrosine antibody, and quantified by homogenous time-resolved fluorescence (HTRF).
(§2) The enzymes were first diluted from their concentrated stock solutions into buffer containing 100 mM MOPS (pH7.5); 0.01% Tween-20; 0.1 mg/mL bovine serum albumin (BSA); and 80 nM EGFR, 100 nM ErbB2, or 100 nM ErbB4. The enzymes were incubated in this buffer for 30 minutes at room temperature before addition to the assay plates. Reactions were performed in black 384-well polystyrene flat-bottom plates in a final volume of 20 μL. Reaction mixtures contained 100 mM MOPS (pH 7.5), 2 mM MnCl2, 20 μM ATP, 0.01% Tween-20, 0.1 mg/mL (BSA), 0.8 μM peptide substrate, and 1 mM dithiothreitol. Reactions were initiated by adding enzyme. 0.4 nM EGRF, 5 nM ErbB2, and 0.5 nM ErbB4 were the final enzyme concentrations.
Reactions were allowed to proceed for 90 minutes and were then terminated by the addition of 20 μL 100 mM EDTA to each well. 40 μL/well of HTRF mix were then added to the assay plates for the detection of phosphorylated substrate.
Compounds under analysis were dissolved in Me2SO to 1.0 mM and serially diluted 1 to 3 with Me2SO through twelve dilutions. 1 μL of each concentration was transferred to the corresponding well of an assay plate.
Data were fitted with a curve described by: y=((Vmax*x)/(K+x))+Y2 where Vmax is the upper asymptote, Y2 is the Y intercept, and K is the IC50.

[2] = biological target: T2, ErbB2 (Homo sapiens, UniProt P04626); assay: ErbB2 substrate phosphorylation enzyme assay (HTRF); format: biochemical; details: isolated enzyme, 20 μM ATP
T2 construct: made in house; host or cells: baculovirus expression system
Protocol: Compounds of the present invention were tested for EGFR, ErbB-2, and ErbB4 protein tyrosine kinase Inhibitory activity in substrate phosphorylation assays using enzymes purified from a baculovirus expression system. Reagent production was conducted essentially as described (Brignola, P. S., et al, (2002) J. Biol. Chem. v. 277 2, 1576-1585).
as §1, §2
Reactions were allowed to proceed for 90 minutes and were then terminated by the addition of 20 μL 100 mM EDTA to each well. 40 μL/well of HTRF mix were then added to the assay plates for the detection of phosphorylated substrate. Final assay concentrations were: 100 mM HEPES (pH7.5), 0.1 mg/mL BSA, 15 nM streptavidin-labeled allophycocyanin (PerkinElmer), and 1 nM europium-labeled anti-phosphotyrosine antibody (PerkinElmer). Assay plates were left unsealed and were counted in a Wallac Multilabel Counter 1420 (PerkinElmer).
Compounds under analysis were dissolved in Me2SO to 1.0 mM and serially diluted 1 to 3 with Me2SO through twelve dilutions. 1 μL of each concentration was transferred to the corresponding well of an assay plate. This creates a final compound concentration range from 0.00027 to 47.6 μM.
The data for dose responses were plotted as % Inhibition calculated with the data reduction formula 100*(1−(U1−C2)/(C1−C2)) versus concentration of compound where U is the unknown value, C1 is the average control value obtained for 4.76% DMSO, and C2 is the average control value obtained for 0.035 M EDTA. Data were fitted with a curve described by: y=((Vmax*x)/(K+x))+Y2 where Vmax is the upper asymptote, Y2 is the Y intercept, and K is the IC50. The results for reach compound were recorded as pIC50s, calculated as follows: pIC50=−Log10(K)

T1 sequence (P00533 669-1210 limits assumed): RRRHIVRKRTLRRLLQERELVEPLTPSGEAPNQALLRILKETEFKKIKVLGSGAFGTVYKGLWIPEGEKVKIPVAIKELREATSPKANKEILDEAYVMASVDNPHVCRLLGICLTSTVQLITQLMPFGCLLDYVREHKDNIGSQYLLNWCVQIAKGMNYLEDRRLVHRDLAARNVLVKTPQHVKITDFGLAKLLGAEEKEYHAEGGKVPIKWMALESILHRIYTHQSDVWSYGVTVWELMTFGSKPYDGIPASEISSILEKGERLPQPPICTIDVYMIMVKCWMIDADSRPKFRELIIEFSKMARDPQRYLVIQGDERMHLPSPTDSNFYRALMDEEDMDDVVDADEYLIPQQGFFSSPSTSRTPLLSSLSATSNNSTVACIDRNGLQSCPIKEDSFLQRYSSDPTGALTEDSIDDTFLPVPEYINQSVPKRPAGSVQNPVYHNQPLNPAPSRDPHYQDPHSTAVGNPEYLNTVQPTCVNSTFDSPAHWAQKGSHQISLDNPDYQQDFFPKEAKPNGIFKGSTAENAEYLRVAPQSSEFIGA
T2 sequence (P04626 676-1255 limits assumed): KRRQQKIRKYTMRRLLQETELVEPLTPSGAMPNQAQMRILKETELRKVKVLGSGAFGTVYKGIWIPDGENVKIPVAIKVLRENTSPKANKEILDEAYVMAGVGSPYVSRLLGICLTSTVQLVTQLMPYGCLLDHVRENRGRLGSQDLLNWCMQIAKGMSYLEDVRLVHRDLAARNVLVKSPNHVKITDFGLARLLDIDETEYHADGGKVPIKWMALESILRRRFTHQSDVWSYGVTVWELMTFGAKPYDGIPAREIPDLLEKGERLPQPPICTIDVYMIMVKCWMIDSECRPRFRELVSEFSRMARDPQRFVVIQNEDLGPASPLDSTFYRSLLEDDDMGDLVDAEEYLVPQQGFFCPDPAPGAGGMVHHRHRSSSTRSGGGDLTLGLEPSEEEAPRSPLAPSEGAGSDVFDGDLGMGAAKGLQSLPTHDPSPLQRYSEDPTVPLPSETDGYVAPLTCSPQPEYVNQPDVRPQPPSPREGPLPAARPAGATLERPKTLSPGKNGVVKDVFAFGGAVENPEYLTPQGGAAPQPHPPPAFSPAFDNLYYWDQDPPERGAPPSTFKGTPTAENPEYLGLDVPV

IC50 [1] [nM] | IC50 [2] [nM] | SMILES
< 100 | < 100 | CC(=O)Nc1cccc(/C=C/c2cncnc2Nc2ccc(OCc3cccc(F)c3)c(Cl)c2)c1 [Example 20, N-(3-{(E)-2-[4-({3-Chloro-4-[(3-fluorobenzyl)oxy]phenyl}amino)pyrimidin-5-yl]ethenyl}phenyl)acetamide]
100 to 1000 | 100 to 1000 | Fc1cccc(COc2ccc(Nc3ncncc3C#Cc3cccc(CNCCN4CCOCC4)n3)cc2Cl)c1 [Example 76, N-{3-Chloro-4-[(3-fluorobenzyl)oxy]phenyl}-5-{[6-({[2-(4-morpholinyl)ethyl]amino}methyl)-2-pyridinyl]ethynyl}-4-pyrimidinamine]
> 1000 | > 1000 | COCc1cccc(C#Cc2cncnc2Nc2ccc(OCc3cccc(F)c3)c(Cl)c2)n1 [Example 80, N-{3-Chloro-4-[(3-fluorobenzyl)oxy]phenyl}-5-{[6-(methoxymethyl)-2-pyridinyl]ethynyl}-4-pyrimidinamine]
> 1000 | > 1000 | C(=C\c1cncnc1Nc1ccc2sc(Cc3ccccc3)nc2c1)/c1ccsc1 [Example 5, 2-Benzyl-N-{5-[(E)-2-thien-3-ylethenyl]pyrimidin-4-yl}-1,3-benzothiazol-5-amine]
< 100 | < 100 | COc1ccc(/C=C/c2cncnc2Nc2ccc(OCc3cccc(F)c3)c(Cl)c2)cc1OC [Example 21, N-{3-Chloro-4-[(3-fluorobenzyl)oxy]phenyl}-5-[(E)-2-(3,4-dimethoxyphenyl)ethenyl]pyrimidin-4-amine]
< 100 | < 100 | Fc1cccc(COc2ccc(Nc3ncncc3C#Cc3cccc(CN4CCCCC4)n3)cc2Cl)c1 [Example 92, N-{3-Chloro-4-[(3-fluorobenzyl)oxy]phenyl}-5-([6-(1-piperidinylmethyl)-2-pyridinyl]ethynyl}-4-pyrimidinamine]
100 to 1000 | < 100 | N=C(N)Nc1cccc(C#Cc2cncnc2Nc2ccc(OCc3cccc(F)c3)c(Cl)c2)c1 [Example 49, N-(3-{[4-({3-Chloro-4-[(3-fluorobenzyl)oxy]phenyl}amino)pyrimidin-5-yl]ethynyl}phenyl)guanidine]
< 100 | < 100 | Nc1cccc(C#Cc2cncnc2Nc2ccc(OCc3cccc(F)c3)c(Cl)c2)n1 [Example 67, 5-[(6-Amino-2-pyridinyl)ethynyl]-N-(3-chloro-4-{[(3-fluorophenyl)methyl]oxy}phenyl)4-pyrimidinamine]
< 100 | < 100 | O=C(NCCN1CCOCC1)NCc1cccc(C#Cc2cncnc2Nc2ccc(OCc3cccc(F)c3)c(Cl)c2)n1 [Example 89, N-({6-[(4-{3-Chloro-4-[(3-fluorobenzyl)oxy]anilino}-5-pyrimidinyl)ethynyl]-2-pyridinyl}methyl)-N′-[2-(4-morpholinyl)ethyl]urea]
< 100 | < 100 | Fc1cccc(COc2ccc(Nc3ncncc3C#Cc3cccc(CNCCCn4ccnc4)n3)cc2Cl)c1 [Example 78, N-{3-Chloro-4-[(3-fluorobenzyl)oxy]phenyl}-5-{[6-({[3-(1H-imidazol-1-yl)propyl]amino}methyl)-2-pyridinyl]ethynyl}-4-pyrimidinamine]
– | < 100 | Nc1nccc(C#Cc2cncnc2Nc2ccc(OCc3cccc(F)c3)c(Cl)c2)n1 [Example 99, 4-{[4-({3-Chloro-4-[(3-fluorobenzyl)oxy]phenyl}amino)pyrimidin-5-yl]ethynyl}pyrimidin-2-amine]
100 to 1000 | 100 to 1000 | C(=C\c1cncnc1Nc1ccc2c(cnn2Cc2ccccc2)c1)/c1cn[nH]c1 [Example 9, 1-Benzyl-N-{5-[(E)-2-(1H-pyrazol-4-yl)ethenyl]pyrimidin-4-yl}-1H-indazol-5-amine]
< 100 | < 100 | CS(=O)(=O)CCNC(=O)NCc1cccc(C#Cc2cncnc2Nc2ccc(OCc3cccc(F)c3)c(Cl)c2)n1 [Example 88, N-({6-[(4-{3-Chloro-4-[(3-fluorobenzyl)oxy]anilino}-5-pyrimidinyl)ethynyl]-2-pyridinyl}methyl)-N′-[2-(methylsulfonyl)ethyl]urea]
< 100 | < 100 | Fc1cccc(COc2ccc(Nc3ncncc3/C=C/c3ccsc3)cc2Cl)c1 [Example 17, N-{3-Chloro-4-[(3-fluorobenzyl)oxy]phenyl}-5-[(E)-2-thien-3-yletheny]pyrimidin-4-amine]
< 100 | < 100 | Fc1cccc(COc2ccc(Nc3ncncc3/C=C/c3ccccc3)cc2Cl)c1 [Example 22, N-{3-Chloro-4-[(3-fluorobenzyl)oxy]phenyl}-5-[(E)-2-phenylethenyl]pyrimidin-4-amine]
< 100 | < 100 | O=C(Nc1cccc(C#Cc2cncnc2Nc2ccc(OCc3cccc(F)c3)c(Cl)c2)n1)C(F)(F)F [Example 100, N-(6-{[4-({3-Chloro-4-[(3-fluorobenzyl)oxy]phenyl}amino)pyrimidin-5-yl]ethynyl}pyridin-2-yl)-2,2,2-trifluoroacetamide]
> 1000 | > 1000 | CS(=O)(=O)CCNc1cccc(C#Cc2cncnc2Nc2ccc(OCc3cccc(F)c3)c(Cl)c2)n1 [Example 72, N-{3-Chloro-4-[(3-fluorobenzyl)oxy]phenyl}-5-[(6-{[2-(methylsulfonyl)ethyl]amino}-2-pyridinyl)ethynyl]-4-pyrimidinamine]
100 to 1000 | 100 to 1000 | COC(=O)CCC(=O)Nc1cccc(C#Cc2cncnc2Nc2ccc(OCc3cccc(F)c3)c(Cl)c2)n1 [Example 71, Methyl 4-({6-[(4-{3-chloro-4-[(3-fluorobenzyl)oxy]anilino}-5-pyrimidinyl)ethynyl]-2-pyridinyl}amino)-4-oxobutanoate]
< 100 | < 100 | Fc1cccc(COc2ccc(Nc3ncncc3/C=C/c3ccncc3)cc2Cl)c1 [Example 14, N-{3-Chloro-4-[(3-fluorobenzyl)oxy]phenyl}-5-[(E)-2-pyridin-4-ylethenyl]pyrimidin-4-amine]
< 100 | < 100 | CN(C)CCCC(=O)Nc1cccc(C#Cc2cncnc2Nc2ccc(OCc3cccc(F)c3)c(Cl)c2)n1 [Example 70, N-{6-[(4-{3-Chloro-4-[(3-fluorobenzyl)oxy]anilino}-5-pyrimidinyl)ethynyl]-2-pyridinyl}-4-(dimethylamino)butanamide]

Reference: US20060205740A1, “Chemical compounds” (priority 2003, published 2006)
